Results taken from PMC8102066 (eLife, 2021).
Several values for one entry are separate records, joined by “and”; a condition that tells them apart may be missing. Equal entries are not always repeated. Where two headings read alike, the source gives them in different places.

How the values were obtained:
mGluR2 [1] = target: mGluR2 (Rattus norvegicus, UniProt P31421, INS660ASEIGTGFPFDPHYVEVLGERMHYVDVGPRDGTPVLFLHGNPTSSYVWRNIIPHVAPTHRCIAPDLIGMGKSDKPDLGYFFDDHVRFMDAFIEALGLEEVVLVIHDWGSALGFHWAKRNPERVKGIAFMEFIRPIPTWDEWPEFARETFQAFRTTDVGRKLIIDQNVFIEGTLPMGVVRPLTEVEMDHYREPFLNPVDREPLWRFPNELPIAGEPANIVALVEEYMDWLHQSPVPKLLFWGTPGVLIPPAEAARLAKSLPNCKAVDIGPGLNLLQEDNPDLIGSEIARWLSTLEISGLE); test: Inter-TMD FRET sensor (HaloTag in ICL2), live cells; settings: mGluR2, inter-TMD FRET
mGluR3-3xTM4 = mGluR3-3xTM4 (Rattus norvegicus, UniProt P31422, F690A/G694A/INS669ASEIGTGFPFDPHYVEVLGERMHYVDVGPRDGTPVLFLHGNPTSSYVWRNIIPHVAPTHRCIAPDLIGMGKSDKPDLGYFFDDHVRFMDAFIEALGLEEVVLVIHDWGSALGFHWAKRNPERVKGIAFMEFIRPIPTWDEWPEFARETFQAFRTTDVGRKLIIDQNVFIEGTLPMGVVRPLTEVEMDHYREPFLNPVDREPLWRFPNELPIAGEPANIVALVEEYMDWLHQSPVPKLLFWGTPGVLIPPAEAARLAKSLPNCKAVDIGPGLNLLQEDNPDLIGSEIARWLSTLEISGLE/S686A); test: as above; settings: for FRET response amplitude: mGluR3-3xTM4, inter-TMD FRET
mGluR3-G694A = mGluR3-G694A (Rattus norvegicus, UniProt P31422, G694A); test: Calcium imaging in HEK 293 T cells; settings: for Calcium response amplitude: mGluR3-G694A
mGluR3-I788A [2] = target: T1, mGluR3-I788A (Rattus norvegicus, UniProt P31422, I788A); test: Inter-TMD FRET sensor (HaloTag in ICL2), live cells; type: cell-based; parameters: expressed in transfected cells; host or cells: HEK 293 T; FRET response amplitude: scale not given here; settings: for FRET response amplitude: inter-TMD FRET
Text: Next, we asked how perturbing the TM6 interface would alter the conformational dynamics detected by our TMD FRET sensors.

mGluR2 [3] = target: mGluR2 (Rattus norvegicus, UniProt P31421); test: Inter-LBD FRET (N-terminal SNAP-tags), live cells; settings: mGluR2, inter-LBD FRET
mGluR3 [4] = target: mGluR3 (Rattus norvegicus, UniProt P31422, INS669ASEIGTGFPFDPHYVEVLGERMHYVDVGPRDGTPVLFLHGNPTSSYVWRNIIPHVAPTHRCIAPDLIGMGKSDKPDLGYFFDDHVRFMDAFIEALGLEEVVLVIHDWGSALGFHWAKRNPERVKGIAFMEFIRPIPTWDEWPEFARETFQAFRTTDVGRKLIIDQNVFIEGTLPMGVVRPLTEVEMDHYREPFLNPVDREPLWRFPNELPIAGEPANIVALVEEYMDWLHQSPVPKLLFWGTPGVLIPPAEAARLAKSLPNCKAVDIGPGLNLLQEDNPDLIGSEIARWLSTLEISGLE); test: Inter-TMD FRET sensor (HaloTag in ICL2), live cells; settings: for FRET response amplitude: mGluR3, inter-TMD FRET;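 for all read-outs here: receptor HaloTag labeled with JF549 donor and JF646 acceptor (1:3), FRET taken as acceptor over summed donor plus acceptor fluorescence intensity, imaged at room temperature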
mGluR3-I788A [5] = target: T1, mGluR3-I788A; test: Calcium imaging in HEK 293 T cells; type: cell-based; parameters: we performed calcium imaging experiments with mutations in the full-length mGluR2 background; expressed in transfected cells; host or cells: HEK 293 T; Calcium response amplitude: scale not given here; settings: for Calcium response amplitude: mGluR3-I788A
Protocol: Approximately 30 ROIs were analyzed per movie.

mGluR2-3xTM4 = mGluR2-3xTM4 (Rattus norvegicus, UniProt P31421, A677S/A681F/A685G); test: GIRK channel whole cell patch clamp in HEK 293 T cells
mGluR3 [6] = target: mGluR3 (Rattus norvegicus, UniProt P31422); test: as above; settings: for GIRK current amplitude: mGluR3
[7] = read-out: Glutamate EC50, inter-TMD FRET, normalized to saturating (1 mM) glutamate, unit inferred

mGluR3 (Rattus norvegicus, UniProt P31422), sequence (P31422 23-879): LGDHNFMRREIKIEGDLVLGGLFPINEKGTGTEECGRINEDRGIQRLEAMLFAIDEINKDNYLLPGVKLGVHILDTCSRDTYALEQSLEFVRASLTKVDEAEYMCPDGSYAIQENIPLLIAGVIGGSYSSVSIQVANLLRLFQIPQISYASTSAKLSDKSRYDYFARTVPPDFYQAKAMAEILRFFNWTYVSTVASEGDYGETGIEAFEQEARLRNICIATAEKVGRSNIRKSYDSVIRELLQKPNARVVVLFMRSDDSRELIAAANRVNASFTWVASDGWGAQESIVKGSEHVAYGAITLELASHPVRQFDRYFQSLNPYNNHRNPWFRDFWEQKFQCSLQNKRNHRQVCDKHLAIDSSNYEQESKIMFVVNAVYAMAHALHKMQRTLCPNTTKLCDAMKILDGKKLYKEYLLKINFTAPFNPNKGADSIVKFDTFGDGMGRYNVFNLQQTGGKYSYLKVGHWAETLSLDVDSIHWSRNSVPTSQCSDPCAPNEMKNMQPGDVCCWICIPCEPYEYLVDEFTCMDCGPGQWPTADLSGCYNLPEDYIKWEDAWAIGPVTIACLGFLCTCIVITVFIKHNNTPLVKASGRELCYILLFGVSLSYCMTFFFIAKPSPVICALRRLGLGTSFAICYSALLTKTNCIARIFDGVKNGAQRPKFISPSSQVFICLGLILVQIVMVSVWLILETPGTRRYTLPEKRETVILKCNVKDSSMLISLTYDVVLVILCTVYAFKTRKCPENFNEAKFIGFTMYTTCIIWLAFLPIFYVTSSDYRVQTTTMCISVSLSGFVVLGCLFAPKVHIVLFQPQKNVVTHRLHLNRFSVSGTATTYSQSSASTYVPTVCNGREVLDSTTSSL
mGluR3-3xTM4, sequence (P31422 with tags, fused parts or gaps with the stated changes): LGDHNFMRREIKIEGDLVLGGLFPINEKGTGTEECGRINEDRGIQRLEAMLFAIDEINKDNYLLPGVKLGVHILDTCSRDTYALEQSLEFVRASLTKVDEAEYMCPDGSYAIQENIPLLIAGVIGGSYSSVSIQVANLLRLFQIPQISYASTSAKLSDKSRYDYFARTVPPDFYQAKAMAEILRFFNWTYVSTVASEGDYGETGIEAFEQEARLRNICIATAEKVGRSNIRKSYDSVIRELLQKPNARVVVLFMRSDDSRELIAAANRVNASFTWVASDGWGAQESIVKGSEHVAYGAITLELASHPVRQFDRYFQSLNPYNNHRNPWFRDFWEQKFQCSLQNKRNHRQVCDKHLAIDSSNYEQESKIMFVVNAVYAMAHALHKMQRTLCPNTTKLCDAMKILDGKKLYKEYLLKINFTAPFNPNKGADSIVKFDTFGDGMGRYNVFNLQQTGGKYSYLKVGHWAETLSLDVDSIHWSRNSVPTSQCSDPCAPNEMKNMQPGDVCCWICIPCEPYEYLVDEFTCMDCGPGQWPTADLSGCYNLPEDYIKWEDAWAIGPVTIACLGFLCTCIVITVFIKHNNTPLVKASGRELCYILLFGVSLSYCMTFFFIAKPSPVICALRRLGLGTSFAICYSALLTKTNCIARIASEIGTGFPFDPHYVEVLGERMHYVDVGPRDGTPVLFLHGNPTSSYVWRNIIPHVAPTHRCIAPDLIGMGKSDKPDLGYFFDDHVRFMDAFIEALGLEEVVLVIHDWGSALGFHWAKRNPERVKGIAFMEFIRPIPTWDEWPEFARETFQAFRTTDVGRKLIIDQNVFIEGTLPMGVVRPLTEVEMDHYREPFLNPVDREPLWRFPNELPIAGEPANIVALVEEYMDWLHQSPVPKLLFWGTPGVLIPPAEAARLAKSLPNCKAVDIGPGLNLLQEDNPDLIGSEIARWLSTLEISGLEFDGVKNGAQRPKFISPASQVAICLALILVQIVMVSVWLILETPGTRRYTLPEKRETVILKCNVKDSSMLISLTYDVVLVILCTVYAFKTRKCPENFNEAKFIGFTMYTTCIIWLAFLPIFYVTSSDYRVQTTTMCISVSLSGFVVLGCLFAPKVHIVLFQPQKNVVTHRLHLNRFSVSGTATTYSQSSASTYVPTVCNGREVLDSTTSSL
mGluR2 (Rattus norvegicus, UniProt P31421), sequence (P31421 19-872): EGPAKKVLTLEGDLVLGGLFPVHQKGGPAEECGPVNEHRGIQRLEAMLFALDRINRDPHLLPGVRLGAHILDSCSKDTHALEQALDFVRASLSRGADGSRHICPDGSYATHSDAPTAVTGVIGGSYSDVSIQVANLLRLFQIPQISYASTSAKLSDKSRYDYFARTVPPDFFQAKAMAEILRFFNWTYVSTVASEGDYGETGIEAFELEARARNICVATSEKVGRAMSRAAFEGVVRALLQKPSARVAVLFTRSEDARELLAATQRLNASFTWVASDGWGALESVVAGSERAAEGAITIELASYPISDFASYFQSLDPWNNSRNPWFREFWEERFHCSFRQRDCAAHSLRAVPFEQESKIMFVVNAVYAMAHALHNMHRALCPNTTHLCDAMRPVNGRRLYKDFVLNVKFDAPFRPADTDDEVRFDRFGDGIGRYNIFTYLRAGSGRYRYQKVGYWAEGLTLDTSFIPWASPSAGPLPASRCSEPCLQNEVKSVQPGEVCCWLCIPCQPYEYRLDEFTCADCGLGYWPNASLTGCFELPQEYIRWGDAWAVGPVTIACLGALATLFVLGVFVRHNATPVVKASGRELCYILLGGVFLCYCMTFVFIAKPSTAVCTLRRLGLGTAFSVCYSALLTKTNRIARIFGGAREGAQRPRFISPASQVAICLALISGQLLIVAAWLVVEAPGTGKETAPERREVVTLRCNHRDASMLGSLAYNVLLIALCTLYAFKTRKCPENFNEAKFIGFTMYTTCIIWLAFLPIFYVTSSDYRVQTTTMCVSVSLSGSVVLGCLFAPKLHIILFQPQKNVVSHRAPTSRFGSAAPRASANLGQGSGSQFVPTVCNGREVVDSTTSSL
mGluR2-3xTM4, sequence (P31421 19-872 A677S/A681F/A685G): as the sequence (P31421 19-872) above, with A659S, A663F, A667G counted along it
T1 sequence (P31422 23-879 I788A): as the sequence (P31422 23-879) above, with I766A counted along it

Question: How did the FRET response amplitude (mGluR2 [1]; Glutamate 10 nM) turn out when `N[C@@H](CCC(=O)O)C(=O)O` [glutamate] was run?
Answer: 0.00

Question: What about the FRET response amplitude (mGluR2 [1]; Glutamate 100 nM) of the same molecule?
Answer: 0.00

Question: What about the FRET response amplitude (mGluR2 [1]; Glutamate 100 uM) of the same molecule?
Answer: 0.97 and 0.96 and 0.95 and 0.92 and 1.04 and 0.99 and 1.01

Question: And the FRET response amplitude (mGluR2 [1]; Glutamate 1 mM)?
Answer: 1.00

Question: And the FRET response amplitude (mGluR3-3xTM4; Glutamate 1 nM)?
Answer: 0.00

Question: What about the FRET response amplitude (mGluR3-3xTM4; Glutamate 100 nM) of the same molecule?
Answer: 0.20 and 0.12 and 0.17 and 0.16 and 0.13 and 0.21

Question: What about the FRET response amplitude (mGluR3-3xTM4; Glutamate 1 uM) of the same molecule?
Answer: 0.69 and 0.42 and 0.65 and 0.66

Question: And the FRET response amplitude (mGluR3-3xTM4; Glutamate 10 uM)?
Answer: 0.75 and 0.99 and 0.89

Question: And the FRET response amplitude (mGluR3-3xTM4; Glutamate 100 uM)?
Answer: 0.80 and 0.96

Question: What about the FRET response amplitude (mGluR3-3xTM4; Glutamate 1 mM) of the same molecule?
Answer: 1.00

Question: What about the EC50 (mGluR3-3xTM4; [7]) of the same molecule?
Answer: 560 ± 100 nM

Question: What about the Calcium response amplitude (mGluR3-G694A; Glutamate 10 nM) of the same molecule?
Answer: 0.00

Question: What about the Calcium response amplitude (mGluR3-G694A; Glutamate 5 uM) of the same molecule?
Answer: 0.50 and 0.59 and 0.67

Question: And the Calcium response amplitude (mGluR3-G694A; Glutamate 10 uM)?
Answer: 0.98

Question: What about the Calcium response amplitude (mGluR3-G694A; Glutamate 100 uM) of the same molecule?
Answer: 1.00

Question: What about the Calcium response amplitude (mGluR3-G694A; Glutamate 1 mM) of the same molecule?
Answer: 1.00

Question: What about the EC50 (mGluR3-G694A; read-out: Glutamate EC50 (micromolar), calcium imaging, Fig 3F source data) of the same molecule?
Answer: 4.65 µM

Question: What about the EC50 (mGluR3-G694A; read-out: Glutamate EC50, calcium imaging, normalized to saturating (1 mM) glutamate) of the same molecule?
Answer: 4.66 ± 0.03 µM

Question: What about the FRET response amplitude (mGluR3-I788A [2]; Glutamate 10 nM) of the same molecule?
Answer: 0.00

Question: What about the FRET response amplitude (mGluR3-I788A [2]; Glutamate 1 uM) of the same molecule?
Answer: 0.60 and 0.66 and 0.55

Question: And the FRET response amplitude (mGluR3-I788A [2]; Glutamate 10 uM)?
Answer: 0.97 and 1.00 and 0.86

Question: What about the FRET response amplitude (mGluR3-I788A [2]; Glutamate 100 uM) of the same molecule?
Answer: 1.00

Question: What about the FRET response amplitude (mGluR3-I788A [2]; Glutamate 1 mM) of the same molecule?
Answer: 1.00

Question: What about the EC50 (mGluR3-I788A [2]; [7]) of the same molecule?
Answer: 660 ± 50 nM

Question: What about the FRET response amplitude (mGluR2 [3]; Glutamate 10 nM) of the same molecule?
Answer: 0.00

Question: What about the FRET response amplitude (mGluR2 [3]; Glutamate 100 nM) of the same molecule?
Answer: 0.00

Question: What about the FRET response amplitude (mGluR2 [3]; Glutamate 3 uM) of the same molecule?
Answer: 0.13 and 0.11 and 0.12 and 0.09

Question: What about the FRET response amplitude (mGluR2 [3]; Glutamate 10 uM) of the same molecule?
Answer: 0.41 and 0.51 and 0.46 and 0.30

Question: And the FRET response amplitude (mGluR2 [3]; Glutamate 100 uM)?
Answer: 0.98 and 1.00 and 0.985

Question: What about the FRET response amplitude (mGluR2 [3]; Glutamate 1 mM) of the same molecule?
Answer: 1.00

Question: And the FRET response amplitude (mGluR3 [4]; Glutamate 1 nM)?
Answer: 0.00

Question: What about the FRET response amplitude (mGluR3 [4]; Glutamate 1 uM) of the same molecule?
Answer: 0.66 and 0.83 and 0.95 and 0.97 and 0.93 and 0.79 and 0.73

Question: What about the FRET response amplitude (mGluR3 [4]; Glutamate 10 uM) of the same molecule?
Answer: 0.80 and 0.95 and 0.97 and 1.05 and 0.98 and 0.87

Question: What about the FRET response amplitude (mGluR3 [4]; Glutamate 100 uM) of the same molecule?
Answer: 0.99 and 0.97 and 0.96 and 1.00

Question: And the FRET response amplitude (mGluR3 [4]; Glutamate 1 mM)?
Answer: 1.00

Question: What about the EC50 (mGluR3 [4]; [7]) of the same molecule?
Answer: 230 ± 80 nM

Question: And the Calcium response amplitude (mGluR3-I788A [5]; Glutamate 10 nM)?
Answer: 0.00

Question: What about the Calcium response amplitude (mGluR3-I788A [5]; Glutamate 1 uM) of the same molecule?
Answer: 0.60 and 0.66 and 0.55

Question: What about the Calcium response amplitude (mGluR3-I788A [5]; Glutamate 10 uM) of the same molecule?
Answer: 0.97 and 1.00 and 0.86

Question: And the Calcium response amplitude (mGluR3-I788A [5]; Glutamate 100 uM)?
Answer: 1.00

Question: What about the Calcium response amplitude (mGluR3-I788A [5]; Glutamate 1 mM) of the same molecule?
Answer: 1.00

Question: And the EC50 (mGluR3-I788A [5]; read-out: Glutamate EC50, calcium imaging, normalized to saturating (1 mM) glutamate, unit inferred)?
Answer: 10430 ± 100 nM

Question: And the GIRK current amplitude (mGluR2-3xTM4; Glutamate 10 nM)?
Answer: 0.000

Question: And the GIRK current amplitude (mGluR2-3xTM4; Glutamate 100 uM)?
Answer: 0.955 and 1.148 and 1.101

Question: And the GIRK current amplitude (mGluR2-3xTM4; Glutamate 1 mM)?
Answer: 1.000

Question: What about the GIRK current amplitude (mGluR3 [6]; Glutamate 100 nM) of the same molecule?
Answer: 0.155 and 0.145 and 0.126 and 0.149

Question: And the GIRK current amplitude (mGluR3 [6]; Glutamate 1 uM)?
Answer: 0.541 and 0.995 and 0.692

Question: What about the GIRK current amplitude (mGluR3 [6]; Glutamate 10 uM) of the same molecule?
Answer: 0.818 and 1.150 and 0.770 and 0.856 and 1.007

Question: What about the GIRK current amplitude (mGluR3 [6]; Glutamate 100 uM) of the same molecule?
Answer: 1.000

Question: And the EC50 (mGluR3 [6]; read-out: Glutamate EC50, GIRK activation, normalized to saturating (1 mM) glutamate, unit inferred)?
Answer: 430 ± 100 nM
